Experimental data from the RepoRT retention time repository.
Counter-ions that a name gives are not always drawn.

assay: RP, Waters ACQUITY UPLC HSS T3, 150 × 2.1 mm, 1.8 µm, 45 °C, 0.6 mL/min, estimated dead time 0.55 min; A: water + 0.1% formic acid, pH 3; B: acetonitrile + 0.1% formic acid, pH 3; gradient (min/%B) 0/1 0.1/1 10/55 10.15/65 10.30/75 10.45/85 10.60/95 10.70/100 11/100 11.55/100 11.65/1 11.70/1 11.80/1 11.90/1 12/1 12.10/1 12.15/1 12.65/1; settings: stereoisomer not certain

Structure (SMILES)	LC retention time [min]
O=C(O)/C=C/c1cccc(O)c1 [m-Coumaric acid]	4.88
CC(CCC(=O)NCC(=O)O)C1CCC2C3CCC4CC(OS(=O)(=O)O)CCC4(C)C3CCC12C (stereo unspecified) [Glycolithocholic acid-3-sulfate]	10.2
CC(=O)Nc1ccc(OC2OC(C(=O)O)C(O)C(O)C2O)cc1 (stereo unspecified) [Acetaminophen glucuronide]	1.92
Cn1c(=O)[nH]c2[nH]c(=O)n(C)c2c1=O [1,7-Dimethyluric acid]	2.57
Cn1c[n+](C2OC(CO)C(O)C2O)c2nc(N)[nH]c(=O)c21 (stereo unspecified) [7-Methylguanosine]	2.05
O=C(O)CCCCCCC(=O)O [Suberic acid]	4.46
O=c1ccn(C2OC(CO)C(O)C2O)c(=O)[nH]1 (stereo unspecified) [Uridine]	1.38
OCC1OC(OC2(CO)OC(CO)C(O)C2O)C(O)C(O)C1O (stereo unspecified) [Sucrose]	0.68
O=C(O)c1cc(=O)[nH]c(=O)[nH]1 [Orotic acid]	0.81
O=C1CCC(C(=O)O)N1 (stereo unspecified) [Pyroglutamic acid]	1.25
NCCc1ccc(OS(=O)(=O)O)c(O)c1 [Dopamine 4-O-sulfate]	1.49
O=C(O)CNC(=O)c1ccccc1O [Salicyluric acid]	4.39
O=S(=O)(O)Oc1ccc2[nH]ccc2c1 [5-Hydroxyindole sulfate]	2.81
O=C(O)C=Cc1ccc(O)cc1 [4-Hydroxycinnamic acid]	4.35
Nc1nc2c(ncn2C2OC(CO)C(O)C2O)c(=O)[nH]1 (stereo unspecified) [Guanosine]	1.43
CC(CCC(=O)NCC(=O)O)C1CCC2C3CCC4CC(O)CCC4(C)C3CC(O)C12C (stereo unspecified) [Glycodeoxycholic acid]	10.1
O=c1[nH]c(=O)c2ncn(C3OC(CO)C(O)C3O)c2[nH]1 (stereo unspecified) [Xanthosine]	1.83
CC(CCC(=O)O)C1CCC2C3CCC4CC(O)CCC4(C)C3CC(O)C12C (stereo unspecified) [Deoxycholic acid]	10.9
O=C(O)CNC(=O)Cc1ccccc1 [Phenylacetylglycine]	4.01
O=c1[nH]c(=O)c2[nH]c(=O)[nH]c2[nH]1 [Uric acid]	1.12
CC12CCC3C(CC=C4CC(OS(=O)(=O)O)CCC43C)C1CCC2=O (stereo unspecified) [Dehydroepiandrosterone sulfate]	7.92
CC(CCC(=O)NCC(=O)O)C1CCC2C3CCC4CC(OS(=O)(=O)O)CCC4(C)C3CC(O)C12C (stereo unspecified) [Glycodeoxycholic acid-3-sulfate]	8.94
CC(=O)Nc1ccc(OS(=O)(=O)O)cc1 [Acetaminophen sulfate]	2.26

Results, then the molecule that gave them:

LC retention time [min]	Structure (SMILES)
1.73	CC(=CC(=O)O)C(=O)O [Citraconic acid]
2.1	O=C(O)c1ccc(CO)o1 [Sumiki's acid]
1.57	O=C(O)C(O)c1ccc(O)cc1 (stereo unspecified) [p-Hydroxymandelic acid]
2.1	CC(C)(O)CC(=O)O [3-Hydroxyisovaleric acid]
2.66	CC(CC(=O)O)CC(=O)O [3-Methylglutaric acid]
7.37	Cc1ccc(C(C)C)c(OS(=O)(=O)O)c1 [Thymol Sulfate]
1.72	O=C(O)c1cc(O)c(O)c(O)c1 [Gallic acid]
4.11	O=C(O)Cc1ccccc1O [2-Hydroxyphenylacetic acid]
3.07	CC(C)CC(=O)NCC(=O)O [N-Isovaleroylglycine]
1.59	CC(CO)C(=O)O (stereo unspecified) [3-Hydroxyisobutyric acid]
1.86	O=C(O)CCCC(=O)O [Glutaric acid]
0.752	O=C(O)CC(O)C(=O)O (stereo unspecified) [Malic acid]
3.8	COc1cc(CC(=O)O)ccc1O [Homovanillic acid]
1.62	CC(C)(O)C(=O)O [2-Hydroxyisobutyric acid]
2.74	CC(C)C(O)C(=O)O (stereo unspecified) [2-Hydroxy-3-methylbutyric acid]
1.38	NC(Cc1ccc(O)cc1)C(=O)O (stereo unspecified) [Tyrosine]
8.1	CCCc1oc(CCC(=O)O)c(C(=O)O)c1C [3-Carboxy-4-methyl-5-propyl-2-furanpropionic acid (CMPF)]
0.978	CC(=O)NC(CCC(N)=O)C(=O)O (stereo unspecified) [N-Acetylglutamine]
0.92	CC(=O)NCCC(=O)NC(Cc1cnc[nH]1)C(=O)O [N-Acetyl-L-carnosine]
1.38	O=C(O)CC(CC(=O)O)C(=O)O [1,2,3-Propanetricarboxylic acid]
2.8	CC(CCC(=O)O)C(=O)O (stereo unspecified) [2-Methylglutaric acid]
3.52	CC(C)CC(=O)C(=O)O [Ketoleucine]
2.97	CC(=O)NC(Cc1ccc(O)cc1)C(=O)O (stereo unspecified) [N-Acetyltyrosine]
